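How tested: cells in 96-well plates exposed to compound for 48 hours at five concentrations. GI50 is the concentration that inhibits growth by half. TGI: total growth inhibition.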 Where a SMILES comes first, the peptide text is derived from it. Bridges are numbered along the chain shown (N, C = ends). [ ]: non-standard residue; d: D form. The star is where a group is joined. ξ: configuration not given here. ξDab(CH2SO3H) = NC(CCNCS(=O)(=O)O)C(=O)O; Heptanoyl(6-Me) = CC(C)CCCCC(=O)*; Dab = NCC[CH](N)C(=O)O

Drawing on PubChem BioAssay (NCI), this text covers GI50 and TGI for nine molecules.

Some test systems named below: 786-0 renal; DU-145 prostate; MALME-3M melanoma; NCI-H226 lung; NCI/ADR-RES ovarian; OVCAR-5 ovarian; OVCAR-8 ovarian; SK-MEL-28 melanoma.
Common to all, as to assay: DTP human tumour cell line panel, 48 h

On to `O=[N+]([O-])c1ccc(C2CC(c3ccccc3)=Nc3ccccc3S2)cc1` (configuration not stated), for which the GI50 was above 100 µM in the test with 786-0 renal; 5.15 µM with DU-145 prostate; above 100 µM in the test with MALME-3M melanoma; above 100 µM with NCI-H226 lung; above 100 µM in the test with NCI/ADR-RES ovarian; above 100 µM in the test on OVCAR-5 ovarian. Moreover, the GI50 in the test on OVCAR-8 ovarian is 52.4 µM; in the test with SK-MEL-28 melanoma, above 100 µM. In addition, the TGI in the test with 786-0 renal, with DU-145 prostate, in the test on MALME-3M melanoma, in the test with NCI-H226 lung, in the test with NCI/ADR-RES ovarian and in the test with OVCAR-5 ovarian was above 100 µM each time. The TGI with OVCAR-8 ovarian and with SK-MEL-28 melanoma was above 100 µM throughout.
Consider `CC1=NN(c2ccc(S(=O)(=O)O)cc2)C(=O)/C1=C/c1ccc(Cl)cc1`, for which the total growth inhibition concentration (TGI) in the test on 786-0 renal, with DU-145 prostate, with MALME-3M melanoma, in the test on NCI-H226 lung, in the test with NCI/ADR-RES ovarian and with OVCAR-5 ovarian was above 100 µM throughout. The TGI with OVCAR-8 ovarian and with SK-MEL-28 melanoma was above 100 µM in each case.
On to `CCC(C)C1NC(=O)C(CCNCS(=O)(=O)O)NC(=O)C(NC(=O)C(CCNCS(=O)(=O)O)NC(=O)C(NC(=O)C(CCNCS(=O)(=O)O)NC(=O)CCCCC(C)C)C(C)O)CCNC(=O)C(C(C)O)NC(=O)C(CCNCS(=O)(=O)O)NC(=O)C(CCNCS(=O)(=O)O)NC(=O)C(C(C)CC)NC1=O` (configuration not stated) ({Heptanoyl(6-Me)}-[ξDab(CH2SO3H)]T[ξDab(CH2SO3H)][Dab][ξDab(CH2SO3H)]II[ξDab(CH2SO3H)][ξDab(CH2SO3H)]T; lactam 4-C; configuration not given here), for which the GI50 in the test with 786-0 renal is 13 µM; in the test on DU-145 prostate, 7.09 µM; in the test with MALME-3M melanoma, above 25 µM; in the test with NCI-H226 lung, 8.25 µM; in the test with NCI/ADR-RES ovarian, above 25 µM; in the test with OVCAR-5 ovarian, 24 µM. Further, the GI50 in the test on OVCAR-8 ovarian is 9.66 µM; in the test with SK-MEL-28 melanoma, 2.72 µM. In addition, the concentration for total growth inhibition (TGI) was above 25 µM in the test on 786-0 renal; 23.2 µM in the test on DU-145 prostate; above 25 µM in the test with MALME-3M melanoma; above 25 µM in the test with NCI-H226 lung; above 25 µM in the test on NCI/ADR-RES ovarian; above 25 µM in the test with OVCAR-5 ovarian. The total growth inhibition concentration (TGI) in the test on OVCAR-8 ovarian and in the test on SK-MEL-28 melanoma was above 25 µM throughout.
Regarding `COc1cc2c(cc1Cc1cccc(Cl)c1F)c(=O)c(C(=O)O)cn2[C@@H](CO)C(C)C`, the GI50 was 3.55 µM with 786-0 renal; 5.62 µM in the test on DU-145 prostate; 5.16 µM in the test with MALME-3M melanoma; 5.68 µM in the test on NCI-H226 lung; 4.99 µM in the test on NCI/ADR-RES ovarian; 4.28 µM with OVCAR-5 ovarian. Further, the GI50 in the test with OVCAR-8 ovarian is 3.03 µM; with SK-MEL-28 melanoma it was 6.63 µM. Further, the TGI came out at 14.9 µM in the test on 786-0 renal; 18.8 µM in the test on DU-145 prostate; 18.9 µM in the test on MALME-3M melanoma; 23.6 µM in the test with NCI-H226 lung; 19.4 µM with NCI/ADR-RES ovarian; 15.4 µM in the test with OVCAR-5 ovarian. The concentration for total growth inhibition (TGI) in the test on OVCAR-8 ovarian is 11.8 µM; in the test with SK-MEL-28 melanoma, 21.9 µM.
As to `[Cl][Hg][c]1ccc(Cl)s1`, the GI50 with 786-0 renal is 1.29 µM; in the test with DU-145 prostate, 4.56 µM; with MALME-3M melanoma it was 1.3 µM; in the test with NCI-H226 lung it was 4.71 µM; with NCI/ADR-RES ovarian, 3.31 µM; in the test on OVCAR-5 ovarian it was 1.72 µM. Also, the values for the GI50 in the test on OVCAR-8 ovarian and in the test on SK-MEL-28 melanoma were 2.51 µM and 1.42 µM, respectively. Also, the TGI was determined as 2.61 µM in the test with 786-0 renal; 17.6 µM in the test on DU-145 prostate; 2.94 µM in the test with MALME-3M melanoma; 28.6 µM with NCI-H226 lung; 23.3 µM in the test with NCI/ADR-RES ovarian; 3.29 µM with OVCAR-5 ovarian. The TGI is 6.25 µM in the test on OVCAR-8 ovarian and 2.87 µM in the test with SK-MEL-28 melanoma.
For `C[C@]12CC[C@@H]3c4cc(O)c(O)cc4CC[C@H]3[C@@H]1CC[C@@H]2O`, the GI50 was 6.08 µM with 786-0 renal; 4.46 µM in the test on DU-145 prostate; 0.708 µM in the test on MALME-3M melanoma; 26.8 µM with NCI-H226 lung; 1.3 µM with NCI/ADR-RES ovarian; 25 µM in the test with OVCAR-5 ovarian. The figures for the GI50 in the test with OVCAR-8 ovarian and with SK-MEL-28 melanoma were 6.89 µM and 5.47 µM, respectively. In addition, the TGI in the test with 786-0 renal is above 100 µM; in the test with DU-145 prostate, above 100 µM; with MALME-3M melanoma it was 44.4 µM; in the test with NCI-H226 lung it was above 100 µM; in the test with NCI/ADR-RES ovarian, above 45.4 µM; in the test on OVCAR-5 ovarian, above 100 µM. In addition, the TGI with OVCAR-8 ovarian and with SK-MEL-28 melanoma was above 100 µM in each case.
`CCCCCCCCC/C(=N\NC(=O)c1ccncc1)c1ccc(O)c(O)c1O`: the GI50 was 0.216 µM in the test with 786-0 renal; 0.274 µM in the test on DU-145 prostate; 0.491 µM in the test with MALME-3M melanoma; 0.271 µM with NCI-H226 lung; 0.093 µM in the test on NCI/ADR-RES ovarian; 0.765 µM in the test on OVCAR-5 ovarian. Besides, the figures for the GI50 in the test on OVCAR-8 ovarian and in the test with SK-MEL-28 melanoma were 0.179 µM and 0.384 µM, respectively. Moreover, the TGI in the test with 786-0 renal is 5.75 µM; with DU-145 prostate, above 100 µM; with MALME-3M melanoma, above 100 µM; with NCI-H226 lung, 14.7 µM; with NCI/ADR-RES ovarian, 11.4 µM; in the test with OVCAR-5 ovarian, 78.6 µM. Further, the total growth inhibition concentration (TGI) in the test on OVCAR-8 ovarian and with SK-MEL-28 melanoma was above 100 µM in each case.
Take `C=C1C(=O)O[C@H]2C[C@@H]1CC/C(C)=C/CC/C(C)=C/CC[C@@]2(C)O`: the GI50 in the test with 786-0 renal is 43.4 µM; in the test with DU-145 prostate it was 45.3 µM; in the test with NCI-H226 lung it was 24.4 µM; with NCI/ADR-RES ovarian, above 100 µM; in the test with OVCAR-5 ovarian, above 100 µM; in the test with OVCAR-8 ovarian, 81.2 µM. Moreover, the GI50 in the test with SK-MEL-28 melanoma is 37.2 µM. Also, the total growth inhibition concentration (TGI) in the test with 786-0 renal is above 100 µM; in the test on DU-145 prostate it was above 100 µM; in the test with NCI-H226 lung, 58.1 µM; with NCI/ADR-RES ovarian, above 100 µM; in the test with OVCAR-5 ovarian it was above 100 µM; with OVCAR-8 ovarian it was above 100 µM. The same molecule came in with a total growth inhibition concentration (TGI) with SK-MEL-28 melanoma above 100 µM.
Turning to `COc1ccc2c(O)c(/C=C3\N=Nc4ccccc43)oc2c1C[C@@H]1CCNC[C@H]1F`, the GI50 in the test on 786-0 renal is 1.7 µM; with DU-145 prostate, 11.2 µM; with MALME-3M melanoma, 3.33 µM; in the test on NCI-H226 lung it was 13 µM; in the test on NCI/ADR-RES ovarian it was 10.5 µM; in the test on OVCAR-5 ovarian it was 10.5 µM. The GI50 in the test with OVCAR-8 ovarian was 2.28 µM. Also, the concentration for total growth inhibition (TGI) in the test on 786-0 renal was determined as 3.22 µM; with DU-145 prostate it was 23.7 µM; in the test on MALME-3M melanoma, 22.5 µM; with NCI-H226 lung it was 31.9 µM; with NCI/ADR-RES ovarian it was 25.9 µM; with OVCAR-5 ovarian it was 24 µM. In the test with OVCAR-8 ovarian, the concentration for total growth inhibition (TGI) stood at 5.53 µM.

Usually GI50 stands for the concentration that inhibits growth by half. Broadly, the TGI is the concentration at which net growth stops.
